In publication PMC9962224, “Novel Inhibitors of Acetyl- and Butyrylcholinesterase Derived from Benzohydrazides: Synthesis, Evaluation and Docking Study” (Pharmaceuticals, 2023):

Tests used:
[1] = molecular target: T1, AChE (obtained from electric eel; EeAChE) (Electrophorus electricus, UniProt O42275); assay: biochemical; assay type: biochemical; settings: for Selectivity BChE/AChE: SI = ratio of IC50 for BChE/IC50 for AChE, above 1 = stronger inhibition of AChE; for IC50: electric eel AChE, mean ± SD from three independent experiments
T1 construct: AChE (obtained from electric eel); purchased Merck (Prague, Czech Republic); host or cells: electric eel (natural source)
From the text: (§1) Hydrazinecarboxamides 1–3 were examined in vitro for their potential to inhibit the function of AChE (obtained from electric eel) and BChE from equine serum using Ellman’s spectrophotometric method (Table 2). The activities are expressed as IC50 values, i.e., concentrations leading to 50% inhibition of enzymatic activity. Based on the IC50 values for AChE and BChE, we calculated selectivity indexes (SI) that quantified the selectivity for each cholinesterase. SI is the ratio of IC50 for BChE/IC50 for AChE.
(§2) The enzyme activity in the final reaction mixture (2000 µL) was 0.2 U/mL, the concentration of ATCh (or BTCh) was 40 µM, and the concentration of DTNB was 100 µM for all reactions. The investigated derivatives were dissolved in DMSO and then diluted with demineralized water (conductivity 3 μS, equipment supplier BKG Water Treatment, Hradec Králové, Czech Republic) to a concentration of 1000 µM. Five different inhibitor concentrations were used for all tested compounds in the final reaction mixture. The final concentration of DMSO was 0.2%. All experiments were performed in triplicate. The average values of the reaction rate (v0-uninhibited reaction, vi-inhibited reaction) were used to construct the dependence of v0/vi on the concentration of inhibitors. IC50 values were calculated from obtained regression curve equations.
(§3) Acetylcholinesterase originating from electric eels (Electrophorus electricus L.; EeAChE) and butyrylcholinesterase obtained from equine serum (EqBChE) were used.

[2] = molecular target: T2, BChE from equine serum (EqBChE) (Equus caballus, UniProt P81908); assay: biochemical; assay type: biochemical; settings: for IC50: equine serum BChE, mean ± SD from three independent experiments
T2 construct: BChE from equine serum; purchased Merck (Prague, Czech Republic); host or cells: equine serum (natural source)
From the text: as §1, §2, §3

T1 sequence (O42275 24-633): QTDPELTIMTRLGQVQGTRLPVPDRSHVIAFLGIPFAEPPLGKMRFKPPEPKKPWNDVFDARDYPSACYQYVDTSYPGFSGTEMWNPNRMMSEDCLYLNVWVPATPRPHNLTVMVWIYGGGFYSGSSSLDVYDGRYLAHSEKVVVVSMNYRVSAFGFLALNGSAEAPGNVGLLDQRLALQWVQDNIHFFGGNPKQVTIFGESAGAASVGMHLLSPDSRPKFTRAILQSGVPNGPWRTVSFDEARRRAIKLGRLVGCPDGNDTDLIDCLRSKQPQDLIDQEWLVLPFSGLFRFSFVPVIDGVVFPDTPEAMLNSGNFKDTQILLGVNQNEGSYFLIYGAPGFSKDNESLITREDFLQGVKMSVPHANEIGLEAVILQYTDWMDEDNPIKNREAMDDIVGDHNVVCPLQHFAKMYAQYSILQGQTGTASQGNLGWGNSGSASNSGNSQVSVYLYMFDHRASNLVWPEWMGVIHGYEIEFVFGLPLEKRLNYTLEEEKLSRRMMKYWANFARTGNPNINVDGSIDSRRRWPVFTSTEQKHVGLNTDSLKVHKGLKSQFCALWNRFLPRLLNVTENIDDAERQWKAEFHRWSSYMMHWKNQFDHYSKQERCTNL
T2 sequence (P81908 whole entry): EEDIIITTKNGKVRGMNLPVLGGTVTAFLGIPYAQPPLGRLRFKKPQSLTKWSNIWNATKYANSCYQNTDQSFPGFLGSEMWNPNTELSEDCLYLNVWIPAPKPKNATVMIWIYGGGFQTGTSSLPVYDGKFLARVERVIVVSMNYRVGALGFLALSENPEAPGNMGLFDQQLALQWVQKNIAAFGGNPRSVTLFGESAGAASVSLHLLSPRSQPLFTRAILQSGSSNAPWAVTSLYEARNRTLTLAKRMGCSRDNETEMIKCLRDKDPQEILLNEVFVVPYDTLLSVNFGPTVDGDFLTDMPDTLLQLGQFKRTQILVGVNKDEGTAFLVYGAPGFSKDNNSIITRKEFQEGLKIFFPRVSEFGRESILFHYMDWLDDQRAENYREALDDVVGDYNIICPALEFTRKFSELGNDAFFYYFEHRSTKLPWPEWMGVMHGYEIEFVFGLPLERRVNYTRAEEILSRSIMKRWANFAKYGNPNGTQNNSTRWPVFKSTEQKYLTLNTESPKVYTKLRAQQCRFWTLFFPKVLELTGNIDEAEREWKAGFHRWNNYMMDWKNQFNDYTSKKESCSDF

| Compound | Selectivity BChE/AChE [1] | IC50 [1] [µM] | IC50 [2] [µM] | Fold improvement of BChE inhibition, tridecyl vs. N-methyl analog ([2]; 1g vs. 1h) [×] | Fold superiority of BChE inhibition over parent compound P2 ([2]; vs. P2) [×] |
| --- | --- | --- | --- | --- | --- |
| CNC(=O)NNC(=O)c1ccc(OC(F)(F)F)cc1 [1a, N-Methyl-2-[4-(trifluoromethoxy)benzoyl]hydrazine-1-carboxamide] | 3.6 | 56.76 ± 0.49 | 204 ± 13.5 | – | – |
| CNC(=O)NNC(=O)c1ccc(O)cc1 [1aa, 2-(4-Hydroxybenzoyl)-N-methylhydrazine-1-carboxamide] | 3.7 | 67.6 ± 1.3 | 247 ± 18.4 | – | – |
| CCCCCCCCCCCCCNC(=O)NNC(=O)c1ccc(OC(F)(F)F)cc1 [1b, N-Tridecyl-2-[4-(trifluoromethoxy)benzoyl]hydrazine-1-carboxamide] | 1.9 | 65.1 ± 1.15 | 125.2 ± 1.17 | – | – |
| CCCCCCCCCCCCCNC(=O)NNC(=O)c1ccc(O)cc1 [1bb, 2-(4-Hydroxybenzoyl)-N-tridecylhydrazine-1-carboxamide] | 2.0 | 74.7 ± 3.31 | 149 ± 10.7 | – | – |
| CNC(=O)NNC(=O)c1ccc(F)cc1 [1c, 2-(4-Fluorobenzoyl)-N-methylhydrazine-1-carboxamide] | 6.4 | 57.2 ± 1.66 | 366 ± 78.4 | – | – |
| CNC(=O)NNC(=O)c1ccc(S(N)(=O)=O)cc1 [1cc, N-Methyl-2-(4-sulfamoylbenzoyl)hydrazine-1-carboxamide] | 2.9 | 86.14 ± 0.5 | 250 ± 5.22 | – | – |
| CCCCCCCCCCCCCNC(=O)NNC(=O)c1ccc(F)cc1 [1d, 2-(4-Fluorobenzoyl)-N-tridecylhydrazine-1-carboxamide] | 8.0 | 60.16 ± 0.53 | 483 ± 20.2 | – | – |
| CCCCCCCCCCCCCNC(=O)NNC(=O)c1ccc(S(N)(=O)=O)cc1 [1dd, 2-(4-Sulfamoylbenzoyl)-N-tridecylhydrazine-1-carboxamide] | 3.7 | 74.6 ± 1.12 | 275 ± 10.7 | – | – |
| CNC(=O)NNC(=O)c1ccc(Cl)cc1 [1e, 2-(4-Chlorobenzoyl)-N-methylhydrazine-1-carboxamide] | 7.2 | 44.1 ± 1.79 | 319 ± 12.6 | – | – |
| CNC(=O)NNC(=O)c1ccccc1 [1ee, 2-Benzoyl-N-methylhydrazine-1-carboxamide] | 3.6 | 63.3 ± 1.49 | 229.21 ± 0.08 | – | – |
| CCCCCCCCCCCCCNC(=O)NNC(=O)c1ccc(Cl)cc1 [1f, 2-(4-Chlorobenzoyl)-N-tridecylhydrazine-1-carboxamide] | 1.0 | 86.59 ± 0.29 | 88.7 ± 3.28 | – | – |
| CCCCCCCCCCCCCNC(=O)NNC(=O)c1ccccc1 [1ff, 2-Benzoyl-N-tridecylhydrazine-1-carboxamide] | 3.2 | 73.4 ± 2.45 | 235 ± 5.57 | – | – |
| CNC(=O)NNC(=O)c1ccc(Br)cc1 [1g, 2-(4-Bromobenzoyl)-N-methylhydrazine-1-carboxamide] | 7.1 | 50.6 ± 1.55 | 359.6 ± 2.17 | – | – |
| CCCCCCCCCCCCCNC(=O)NNC(=O)c1ccc(Br)cc1 [1h, 2-(4-Bromobenzoyl)-N-tridecylhydrazine-1-carboxamide] | 0.4 | 72.66 ± 0.67 | 27.08 ± 0.07 | 13.3 | – |
| CNC(=O)NNC(=O)c1ccc(I)cc1 [1i, 2-(4-Iodobenzoyl)-N-methylhydrazine-1-carboxamide] | >6.8 | 73.8 ± 1.78 | > 500 | – | – |
| CCCCCCCCCCCCCNC(=O)NNC(=O)c1ccc(I)cc1 [1j, 2-(4-Iodobenzoyl)-N-tridecylhydrazine-1-carboxamide] | 2.4 | 79.7 ± 2.08 | 192 ± 3.45 | – | – |
| CNC(=O)NNC(=O)c1ccc([N+](=O)[O-])cc1 [1k, N-Methyl-2-(4-nitrobenzoyl)hydrazine-1-carboxamide] | 3.3 | 54 ± 2.21 | 178 ± 9.13 | – | – |
| CCCCCCCCCCCCCNC(=O)NNC(=O)c1ccc([N+](=O)[O-])cc1 [1l, 2-(4-Nitrobenzoyl)-N-tridecylhydrazine-1-carboxamide] | 0.4 | 53.7 ± 1.2 | 22.31 ± 0.09 | – | 12.4 |
| CNC(=O)NNC(=O)c1ccc(C#N)cc1 [1m, 2-(4-Cyanobenzoyl)-N-methylhydrazine-1-carboxamide] | 8.1 | 55.64 ± 0.27 | 448 ± 39 | – | – |
| CCCCCCCCCCCCCNC(=O)NNC(=O)c1ccc(C#N)cc1 [1n, 2-(4-Cyanobenzoyl)-N-tridecylhydrazine-1-carboxamide] | 7.6 | 54.6 ± 1.27 | 418 ± 15.7 | – | – |

| Compound | Selectivity BChE/AChE [1] | IC50 [1] [µM] | IC50 [2] [µM] | Fold improvement of BChE inhibition, tridecyl vs. N-methyl analog ([2]; 1g vs. 1h) [×] | Fold superiority of BChE inhibition over parent compound P2 ([2]; vs. P2) [×] |
| --- | --- | --- | --- | --- | --- |
| CNC(=O)NNC(=O)c1ccc(C)cc1 [1o, N-Methyl-2-(4-methylbenzoyl)hydrazine-1-carboxamide] | 4.6 | 62.29 ± 0.56 | 284 ± 13.2 | – | – |
| CCCCCCCCCCCCCNC(=O)NNC(=O)c1ccc(C)cc1 [1p, 2-(4-Methylbenzoyl)-N-tridecylhydrazine-1-carboxamide] | 2.8 | 100 ± 2.1 | 277 ± 6.5 | – | – |
| CNC(=O)NNC(=O)c1ccc(C(C)(C)C)cc1 [1q] | 4.7 | 60 ± 2.47 | 281 ± 7.79 | – | – |
| CCCCCCCCCCCCCNC(=O)NNC(=O)c1ccc(C(C)(C)C)cc1 [1r] | 0.8 | 75.25 ± 0.43 | 57.24 ± 0.23 | – | – |
| CNC(=O)NNC(=O)c1ccc(-c2ccccc2)cc1 [1s, N-Methyl-2-(4-phenylbenzoyl)hydrazine-1-carboxamide] | 4.7 | 64.4 ± 1.67 | 301 ± 7.46 | – | – |
| CCCCCCCCCCCCCNC(=O)NNC(=O)c1ccc(-c2ccccc2)cc1 [1t, 2-(4-Phenylbenzoyl)-N-tridecylhydrazine-1-carboxamide] | 0.6 | 51.1 ± 0.98 | 32.1 ± 0.18 | – | – |
| CNC(=O)NNC(=O)c1ccc(OC)cc1 [1u, 2-(4-Methoxybenzoyl)-N-methylhydrazine-1-carboxamide] | 3.0 | 57.2 ± 0.92 | 171 ± 8.36 | – | – |
| CCCCCCCCCCCCCNC(=O)NNC(=O)c1ccc(OC)cc1 [1v, 2-(4-Methoxybenzoyl)-N-tridecylhydrazine-1-carboxamide] | 4.5 | 83.6 ± 3.16 | 376 ± 17 | – | – |
| CNC(=O)NNC(=O)c1ccc(Oc2ccccc2)cc1 [1w, N-Methyl-2-(4-phenoxybenzoyl)hydrazine-1-carboxamide] | 4.0 | 75 ± 0.84 | 302.3 ± 2.11 | – | – |
| CCCCCCCCCCCCCNC(=O)NNC(=O)c1ccc(Oc2ccccc2)cc1 [1x, 2-(4-Phenoxybenzoyl)-N-tridecylhydrazine-1-carboxamide] | 6.3 | 58.3 ± 3.29 | 368 ± 14.3 | – | – |
| CNC(=O)NNC(=O)c1ccc(N(C)C)cc1 [1y, 2-[4-(Dimethylamino)benzoyl]-N-methylhydrazine-1-carboxamide] | 4.3 | 70 ± 1.74 | 300 ± 13.6 | – | – |
| CCCCCCCCCCCCCNC(=O)NNC(=O)c1ccc(N(C)C)cc1 [1z, 2-[4-(Dimethylamino)benzoyl]-N-tridecylhydrazine-1-carboxamide] | 2.1 | 87.67 ± 0.83 | 188 ± 2.22 | – | – |
| CNC(=O)NNC(=O)c1cccc(C(F)(F)F)c1 [2a, N-Methyl-2-[3-(trifluoromethyl)benzoyl]hydrazine-1-carboxamide] | 3.7 | 61.3 ± 1 | 225 ± 7.84 | – | – |
| CCCCCCCCCCCCCNC(=O)NNC(=O)c1cccc(C(F)(F)F)c1 [2b, N-Tridecyl-2-[3-(trifluoromethyl)benzoyl]hydrazine-1-carboxamide] | 4.6 | 63.9 ± 0.83 | 292 ± 10.7 | – | – |
| CNC(=O)NNC(=O)c1ccccc1C(F)(F)F [2c, N-Methyl-2-[2-(trifluoromethyl)benzoyl]hydrazine-1-carboxamide] | 4.8 | 61.09 ± 0.03 | 296.2 ± 0.87 | – | – |
| CCCCCCCCCCCCCNC(=O)NNC(=O)c1ccccc1C(F)(F)F [2d, N-Tridecyl-2-[2-(trifluoromethyl)benzoyl]hydrazine-1-carboxamide] | 5.2 | 80.4 ± 2.1 | 422 ± 12.4 | – | – |
| CNC(=O)NNC(=O)c1cccc([N+](=O)[O-])c1 [2e, N-Methyl-2-(3-nitrobenzoyl)hydrazine-1-carboxamide] | >7.4 | 67.4 ± 1.72 | > 500 | – | – |
| CCCCCCCCCCCCCNC(=O)NNC(=O)c1cccc([N+](=O)[O-])c1 [2f, 2-(3-Nitrobenzoyl)-N-tridecylhydrazine-1-carboxamide] | 3.8 | 62.5 ± 1.79 | 236 ± 6.54 | – | – |
| CNC(=O)NNC(=O)c1ccccc1[N+](=O)[O-] [2g, N-Methyl-2-(2-nitrobenzoyl)hydrazine-1-carboxamide] | 3.0 | 64.3 ± 2.23 | 191 ± 10.1 | – | – |
